Source: patent US20120263732A1, “CD40 ANTIBODY FORMULATION AND METHODS” (PFIZER INC., priority 2003, published 2012)

Legend:
B cell lymphoma Daudi = assay: Mortality in systemic Daudi B cell lymphoma model; assay type: in vivo, human tumor in SCID-beige mice; details: Daudi IV; single IP injection; monitored for 58 days
Protocol: The ability of an anti-CD40 antibody according to the invention (21.4.1) to delay mortality in a CD40(+) systemic tumor model using a B cell lymphoma was assessed.
SCID-beige mice were injected IV with the B cell lymphoma Daudi (ATCC CCL-213). 21.4.1 was administered as a single injection (IP) at the time of tumor injection. Mortality was monitored for 58 days.

[1] = system: human breast tumor, BT 474; assay: BT 474 breast tumor growth with human T cells and DC in SCID-beige mice; assay type: in vivo; details: in the presence of immune cells; single injection
Excerpt: SCID-beige mice were challenged with the human breast tumor, BT 474 (ATCC HTB-20), SC, together with human peripheral blood T cells and DC. Animals received a single dose of 21.4.1 (IP) at the time of tumor injection.

[2] = system: CD40(−) colon carcinoma, Lovo; assay: CD40(−) Lovo colon carcinoma growth in SCID-beige mice; assay type: in vivo, human tumor in SCID-beige mice; details: immune cells present; compared with K562 results
Protocol: (§1) The effects of a CD40 antibody (21.4.1) on the growth of CD40(−) tumors (e.g., erythroleukemia and colon carcinoma) were examined. In particular, K562 tumors were chosen to assess the efficacy of 21.4.1 against a CD40(−) low immunogenic (class I and II negative) tumor.
(§2) SCID-beige mice were injected SC with the CD40(−) erythroleukemic tumor, K562 (ATCC CCL-243) alone or in the presence of human peripheral blood T cells and DCs. Animals received a single IP injection of 21.4.1 either at the time of tumor injection or 5 days later using various dose levels.
The amount of 21.4.1 to cause a 50% inhibition of tumor growth was 0.005 mg/kg corresponding to a Cmax serum concentration of 0.05 μg/mL. […] The results were identical when 21.4.1 was administered on Day 0 or Day +5 relative to tumor challenge. The growth of these CD40(−) tumors was not inhibited by 21.4.1 in the absence of immune cells.

[3] = system: CD40(+) Raji B cell lymphoma; assay: CD40(+) Raji B cell lymphoma growth in SCID-beige mice; assay type: in vivo, human tumor in SCID-beige mice
Protocol: SCID-beige mice were injected subcutaneously with the CD40(+) Raji B cell lymphoma (ATCC CCL-86) (SC) followed by a single dose of 21.4.1 (IP) at the time of tumor injection. Some animals were also injected with human T cells and DC. Tumor growth was assessed on Day 21.

breast tumor, BT 474 = assay: Established BT 474 breast tumors: antibody and/or cisplatin; assay type: in vivo, human tumor in SCID-beige mice; details: single IP injection once tumors reached 200 mm^2; antibody 1 mg/kg, cisplatin 2.5 mg/kg; Day 84
Protocol: The therapeutic effects of an anti-CD40 antibody (21.4.1) in preventing the growth of human breast tumors alone and in the presence of cisplatin was examined.
SCID-beige mice were injected SC with the breast tumor, BT 474. The antibody (1 mg/kg, IP) and/or cisplatin (2.5 mg/kg, IP) were administered as a single injection once tumors reached a size of 200 mm^2. Tumor growth was measured on Day 84 after challenge.

[4] = system: CD40(−) erythroleukemic tumor, K562; assay: CD40(−) K562 erythroleukemic tumor growth in SCID-beige mice; assay type: in vivo, human tumor in SCID-beige mice; details: K562 with human T cells and DC; single IP injection; Day 21
Protocol: as §1, §2

Row | amount to cause a 50% inhibition of tumor growth (IC50) [4] [mg/kg] | amount to cause a 50% inhibition of tumor growth (IC50) ([3]; Raji in the absence of immune cells, single IP dose, Day 21) [mg/kg] | Compound | mortality induced by systemically administered tumor cell line (B cell lymphoma Daudi) | growth of BT 474 cells [1] | inhibition of Lovo colon carcinoma growth [2] | anti-tumor activity against CD40(+) tumors when immune cells were present ([3]; Raji) | tumor growth, single agent (breast tumor, BT 474)
1 | – | – | 3.1.1: human anti-CD40 antibody; amino acid sequences SEQ ID NOs:1-4; hybridoma deposit PTA-3600 | demonstrated | demonstrated | demonstrated | demonstrated | demonstrated
2 | < 0.01 | < 0.01 | 3.1.1H-A78T-V88A-V97A/3.1.1L-L4M-L83V: 3.1.1 variant with three heavy chain and two light chain substitutions; SEQ ID NOs:9, 2, 10, 4 | – | – | – | – | –
3 | – | – | N.N.[Cl][Pt][Cl] [cisplatin, cis-diaminedichloroplatinum, reference compound] | – | – | – | – | prevented tumor growth
